Measurements from US9481676B2, “Azepino[4,5-B]indoles and methods of use” (Medivation Technologies, Inc., priority 2008, dated 2016).

Key:
[1] = target: T1, human recombinant adrenergic α1D receptor (Homo sapiens, UniProt P25100); test: Adrenergic alpha1D radioligand binding ([3H]Prozosin); conditions: compound at 1 μM; read-out: Adrenergic (1 μM) α1D, percent inhibition of specific binding
T1 construct: expressed in transfected cells; host or cells: HEK-293 cells
T1 sequence (P25100 1-572): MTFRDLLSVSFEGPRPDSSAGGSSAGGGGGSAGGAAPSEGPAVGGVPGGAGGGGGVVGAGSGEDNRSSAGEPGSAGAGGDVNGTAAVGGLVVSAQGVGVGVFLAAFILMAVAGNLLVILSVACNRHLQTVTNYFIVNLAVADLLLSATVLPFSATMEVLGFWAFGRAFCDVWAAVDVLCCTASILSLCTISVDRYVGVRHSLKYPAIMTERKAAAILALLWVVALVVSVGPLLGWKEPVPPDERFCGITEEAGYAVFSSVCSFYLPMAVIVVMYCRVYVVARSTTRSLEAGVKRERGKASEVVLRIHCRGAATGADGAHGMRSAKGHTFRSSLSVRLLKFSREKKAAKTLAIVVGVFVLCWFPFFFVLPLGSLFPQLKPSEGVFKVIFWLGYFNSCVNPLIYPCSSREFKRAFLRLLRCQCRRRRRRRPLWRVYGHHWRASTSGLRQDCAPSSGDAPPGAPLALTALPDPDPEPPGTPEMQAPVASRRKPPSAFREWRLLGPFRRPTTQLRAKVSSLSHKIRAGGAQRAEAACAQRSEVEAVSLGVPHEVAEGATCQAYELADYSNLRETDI
Summary of the method: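 Membranes from HEK-293 cells expressing the human receptor in 50 mM Tris-HCl pH 7.4 were incubated 60 min at 25 °C with 0.6 nM [3H]prazosin. Nonspecific binding was defined with 10 μM phentolamine, and bound ligand measured by filtration.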

[2] = target: T2, human recombinant dopamine D2L receptor (Homo sapiens, UniProt P14416); test: Dopamine D2L radioligand binding ([3H]Spiperone); conditions: compound at 1 μM; read-out: Dopamine (1 μM) D2L, percent inhibition of specific binding
T2 construct: expressed in transfected cells; host or cells: CHO cells
T2 sequence (P14416 whole entry): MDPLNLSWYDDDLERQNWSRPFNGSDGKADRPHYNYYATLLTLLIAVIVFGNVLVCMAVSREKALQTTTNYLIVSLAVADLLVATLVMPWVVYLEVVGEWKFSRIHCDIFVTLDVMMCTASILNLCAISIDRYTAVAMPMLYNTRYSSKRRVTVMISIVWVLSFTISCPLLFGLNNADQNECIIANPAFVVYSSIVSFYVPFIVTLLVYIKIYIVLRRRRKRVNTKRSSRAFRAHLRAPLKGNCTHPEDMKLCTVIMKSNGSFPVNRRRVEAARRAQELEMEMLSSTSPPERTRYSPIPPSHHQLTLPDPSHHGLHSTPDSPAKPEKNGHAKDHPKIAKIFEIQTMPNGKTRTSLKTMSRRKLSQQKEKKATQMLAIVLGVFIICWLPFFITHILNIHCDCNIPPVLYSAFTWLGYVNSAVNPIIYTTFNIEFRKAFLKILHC
Summary of the method: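 Binding measured by filtration and counting, reported as % inhibition of specific [3H]spiperone binding (0.16 nM tracer; 10 μM haloperidol for nonspecific). Compounds tested at ≤1 μM in 1% DMSO for 120 min at 25° C against CHO-expressed human D2L in pH 7.4 Tris-HCl buffer.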

[3] = target: T3, human recombinant serotonin (5-Hydroxytryptamine) 5-HT2A receptor (Homo sapiens, UniProt P28223); test: Serotonin 5-HT2A radioligand binding ([3H]Ketanserin); conditions: compound at 1 μM; read-out: Serotonin (1 μM) 5-HT2A, percent inhibition of specific binding
T3 construct: expressed in transfected cells; host or cells: CHO-K1 cells
T3 sequence (P28223 whole entry): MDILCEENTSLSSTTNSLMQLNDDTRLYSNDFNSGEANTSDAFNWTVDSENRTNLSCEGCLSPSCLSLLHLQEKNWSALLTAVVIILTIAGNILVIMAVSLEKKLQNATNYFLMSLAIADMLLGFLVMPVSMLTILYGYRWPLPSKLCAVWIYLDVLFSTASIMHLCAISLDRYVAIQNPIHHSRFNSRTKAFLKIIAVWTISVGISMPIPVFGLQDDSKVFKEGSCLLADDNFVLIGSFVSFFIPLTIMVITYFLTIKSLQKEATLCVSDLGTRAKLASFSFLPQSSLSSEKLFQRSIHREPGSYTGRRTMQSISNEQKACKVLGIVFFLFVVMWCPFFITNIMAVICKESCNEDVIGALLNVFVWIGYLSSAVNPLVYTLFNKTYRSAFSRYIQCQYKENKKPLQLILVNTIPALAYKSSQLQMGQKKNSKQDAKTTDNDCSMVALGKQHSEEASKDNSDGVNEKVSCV
Summary of the method: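 Percent inhibition of specific [3H]ketanserin (0.5 nM) binding, filtration read-out, with compounds at ≤1 μM (1% DMSO vehicle). Receptor source: recombinant human 5-HT2A in CHO-K1 cells, 50 mM Tris-HCl pH 7.4, 60 min, 25 °C; 1 μM mianserin gives nonspecific binding.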

[4] = target: T4, human recombinant serotonin (5-Hydroxytryptamine) 5-HT2C receptor (Homo sapiens, UniProt P28335); test: Serotonin 5-HT2C radioligand binding ([3H]Mesulergine); conditions: compound at 1 μM; read-out: Serotonin (1 μM) 5-HT2C, percent inhibition of specific binding
T4 construct: expressed in transfected cells; host or cells: CHO-K1 cells
T4 sequence (P28335 33-458): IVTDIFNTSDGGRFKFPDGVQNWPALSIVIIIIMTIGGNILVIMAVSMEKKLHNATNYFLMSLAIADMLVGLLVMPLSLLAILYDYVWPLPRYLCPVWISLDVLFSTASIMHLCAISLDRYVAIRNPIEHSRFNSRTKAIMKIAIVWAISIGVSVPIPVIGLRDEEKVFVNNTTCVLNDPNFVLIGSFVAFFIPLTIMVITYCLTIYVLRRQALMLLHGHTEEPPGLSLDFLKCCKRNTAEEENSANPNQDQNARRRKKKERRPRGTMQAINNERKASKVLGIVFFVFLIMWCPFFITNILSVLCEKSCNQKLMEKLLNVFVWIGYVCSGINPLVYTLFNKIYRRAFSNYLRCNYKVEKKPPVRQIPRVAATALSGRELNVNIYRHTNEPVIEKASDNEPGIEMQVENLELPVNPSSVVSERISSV
Summary of the method: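 Membranes from CHO-K1 cells expressing human 5-HT2C, incubated with 1 nM [3H]mesulergine for 60 min at 25 °C in 50 mM Tris-HCl pH 7.4 with ascorbic acid and pargyline.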

Row | SMILES | inhibition at 1 µM [1] [%] | inhibition at 1 µM [2] [%] | inhibition at 1 µM [3] [%] | inhibition at 1 µM [4] [%]
1 | CN1CCc2c(n(CCc3ccc(C(F)(F)F)nc3)c3ccc(Cl)cc23)CC1 [Compound No. 1, 9-chloro-6-(2-(6-(trifluoromethyl)pyridin-3-yl)ethyl)-1,2,3,4,5,6-hexahydro-3-methylazepino[4,5-b]indole] | 90 | 23 | 98 | 79
2 | C/C(=C\n1c2c(c3cc(Cl)ccc31)CCN(C)CC2)c1ccc(F)cc1 [Compound No. 2, 9-chloro-6-((E)-2-(4-fluorophenyl)prop-1-enyl)-1,2,3,4,5,6-hexahydro-3-methylazepino[4,5-b]indole] | 100 | 97 | 99 | 88
3 | Cc1cncc(CCn2c3c(c4cc(Cl)ccc42)CCN(C)CC3)c1 [Compound No. 3, 9-chloro-3-methyl-6-(2-(5-methylpyridin-3-yl)ethyl)-1,2,3,4,5,6-hexahydroazepino[4,5-b]indole] | 89 | 27 | 95 | 94
4 | CC1CCN(C(=O)Cn2c3c(c4cc(Cl)ccc42)CCN(C)CC3)CC1 [Compound No. 76, 2-(9-chloro-2,3,4,5-tetrahydro-3-methylazepino[4,5-b]indol-6(1H)-yl)-1-(4-methylpiperidin-1-yl)ethanone] | 37 | 0 | 52 | 78
5 | COc1ccc(C(O)Cn2c3c(c4cc(Cl)ccc42)CCN(C)CC3)cc1OC (stereo not drawn) [Compound No. 77, 2-(9-chloro-2,3,4,5-tetrahydro-3-methylazepino[4,5-b]indol-6(1H)-yl)-1-(3,4-dimethoxyphenyl)ethanol] | 81 | 16 | 90 | 72
6 | COc1ccc(/C=C/n2c3c(c4cc(Cl)ccc42)CCN(C)CC3)cc1 [Compound No. 78, 6-(4-methoxystyryl)-9-chloro-1,2,3,4,5,6-hexahydro-3-methylazepino[4,5-b]indole] | 102 | 58 | 100 | 98
7 | Cc1ccc2c(c1)c1c(n2CC(=O)Nc2ccccc2)CCN(C)CC1 [Compound No. 79, 2-(2,3,4,5-tetrahydro-3,9-dimethylazepino[4,5-b]indol-6(1H)-yl)-N-phenylacetamide] | -6 | -7 | -8 | -18
8 | C=C(Cn1c2c(c3cc(Cl)ccc31)CCN(C)CC2)c1ccc(F)cc1 [Compound No. 82, 9-chloro-6-(2-(4-fluorophenyl)allyl)-3-methyl-1,2,3,4,5,6-hexahydroazepino[4,5-b]indole] | 96 | 90 | 98 | 98
9 | CN1CCc2c(n(/C=C/c3ccccc3F)c3ccc(Cl)cc23)CC1 [Compound No. 83, (E)-9-chloro-6-(2-fluorostyryl)-3-methyl-1,2,3,4,5,6-hexahydro azepino[4,5-b]indole] | 93 | 61 | 99 | 100
10 | C/C(=C/n1c2c(c3cc(Cl)ccc31)CCN(C)CC2)c1ccc(Cl)cc1Cl [Compound No. 152, (Z)-9-chloro-6-(2-(2,4-dichlorophenyl)prop-1-enyl)-1,2,3,4,5,6-hexahydro-3-methylazepino[4,5-b]indole] | 47 | 3 | 100 | 94
11 | COc1ccc(/C=C/n2c3c(c4cc(Cl)ccc42)CCN(C)CC3)cc1F [Compound No. 158, (E)-6-(3-fluoro-4-methoxystyryl)-9-chloro-1,2,3,4,5,6-hexahydro-3-methylazepino[4,5-b]indole] | 98 | 65 | 101 | 99
12 | C/C(=C/n1c2c(c3cc(C)ccc31)CCN(C)CC2)c1ccc(Cl)cc1Cl [Compound No. 174, (Z)-6-(2-(2,4-dichlorophenyl)prop-1-enyl)-1,2,3,4,5,6-hexahydro-3,9-dimethylazepino[4,5-b]indole] | 89 | 34 | 102 | 101
13 | COc1ccc(/C=C/n2c3c(c4cc(C)ccc42)CCN(C)CC3)cc1F [Compound No. 180, (E)-6-(3-fluoro-4-methoxystyryl)-1,2,3,4,5,6-hexahydro-3,9-dimethylazepino[4,5-b]indole] | 98 | 62 | 101 | 100
14 | Cc1ccc2c(c1)c1c(n2CC(=O)N2CCNCC2)CCN(C)CC1 [Compound No. 224, 2-(3,9-dimethyl-2,3,4,5-tetrahydroazepino[4,5-b]indol-6(1H)-yl)-1-(piperazin-1-yl)ethanone] | 19 | -2 | -7 | 11
15 | Cc1ccc2c(c1)c1c(n2CC(=O)N2CCC(C)CC2)CCN(C)CC1 [Compound No. 225, 2-(3,9-dimethyl-2,3,4,5-tetrahydroazepino[4,5-b]indol-6(1H)-yl)-1-(4-methylpiperidin-1-yl)ethanone] | 34 | 3 | 38 | 44
16 | COc1ccc(/C=C/n2c3c(c4cc(Cl)ccc42)CCN(C)CC3)cc1OC [Compound No. 226, (E)-9-chloro-6-(3,4-dimethoxystyryl)-3-methyl-1,2,3,4,5,6-hexahydroazepino[4,5-b]indole] | 83 | 37 | 92 | 82
17 | COc1ccc(C(O)Cn2c3c(c4cc(C)ccc42)CCN(C)CC3)cc1OC (stereo not drawn) [Compound No. 227, 1-(3,4-dimethoxyphenyl)-2-(3,9-dimethyl-2,3,4,5-tetrahydroazepino[4,5-b]indol-6(1H)-yl)ethanol] | 73 | 5 | 85 | 66
18 | CN1CCc2c(n(/C=C/c3ccccc3)c3ccc(Cl)cc23)CC1 [Compound No. 228, (E)-9-chloro-3-methyl-6-styryl-1,2,3,4,5,6-hexahydroazepino[4,5-b]indole] | 98 | 73 | 99 | 97
